Common to all, as to assay: relative viability (nuclei count vs DMSO), 5 days (fraction); higher = more cells survive
Compound in the assay “Quizartinib + Olaparib”: CC(C)(C)c1cc(NC(=O)Nc2ccc(-c3cn4c(n3)sc3cc(OCCN5CCOCC5)ccc34)cc2)no1 [Quizartinib] + O=C(c1cc(Cc2n[nH]c(=O)c3ccccc23)ccc1F)N1CCN(C(=O)C2CC2)CC1 [Olaparib] (partner 8 µM)
The procedure, abridged: (§1)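 One day after seeding in 1536-well plates, lung cancer cell lines were dosed by pin tool. Dosing was either single-drug or a fixed anchor-drug dose plus five library-drug doses (not always all listed) in √10 steps. After 5 days, nuclei were stained in one fix-and-stain step and counted on 4× images, and relative viability is the nuclei count of treated wells over that of vehicle wells, given as the median of duplicate plates.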

Compound in the assay “Quizartinib + Pictilisib”: CC(C)(C)c1cc(NC(=O)Nc2ccc(-c3cn4c(n3)sc3cc(OCCN5CCOCC5)ccc34)cc2)no1 [Quizartinib] + CS(=O)(=O)N1CCN(Cc2cc3nc(-c4cccc5[nH]ncc45)nc(N4CCOCC4)c3s2)CC1 [Pictilisib] (partner 1 µM)
The procedure, abridged: as §1

Compound in the assay “Quizartinib + Bortezomib”: CC(C)(C)c1cc(NC(=O)Nc2ccc(-c3cn4c(n3)sc3cc(OCCN5CCOCC5)ccc34)cc2)no1 [Quizartinib] + CC(C)C[C@H](NC(=O)[C@H](Cc1ccccc1)NC(=O)c1cnccn1)B(O)O [Bortezomib] (partner 0.002 µM)
The procedure, abridged: as §1

Compound in the assay “YM155 + Dasatinib”: COCC[n+]1c2c(n(Cc3cnccn3)c1C)C(=O)c1ccccc1C2=O [YM155] + Cc1nc(Nc2ncc(C(=O)Nc3c(C)cccc3Cl)s2)cc(N2CCN(CCO)CC2)n1 [Dasatinib] (partner 0.075 µM)
Put shortly:
as §1

For LOU-NH91, the relative viability in the assay with Quizartinib + Olaparib (first compound 0.001 µM) worked out at 0.87; with Quizartinib + Olaparib (first compound 0.003162 µM) it was 0.885; in the assay with Quizartinib + Olaparib (first compound 0.01 µM) it was 0.931; in the assay with Quizartinib + Olaparib (first compound 0.03162 µM), 0.838; with Quizartinib + Olaparib (first compound 0.1 µM), 1.01; in the assay with Quizartinib + Pictilisib (first compound 0.001 µM), 0.431. The relative viability in the assay with Quizartinib + Pictilisib (first compound 0.003162 µM) is 0.559; in the assay with Quizartinib + Pictilisib (first compound 0.01 µM), 0.521; with Quizartinib + Pictilisib (first compound 0.03162 µM), 0.465; with Quizartinib + Pictilisib (first compound 0.1 µM), 0.545; with Quizartinib + Bortezomib (first compound 0.001 µM), 0.481; with Quizartinib + Bortezomib (first compound 0.003162 µM), 0.509. Moreover, the relative viability turned out to be 0.538 with Quizartinib + Bortezomib (first compound 0.01 µM); 0.433 in the assay with Quizartinib + Bortezomib (first compound 0.03162 µM); 0.513 with Quizartinib + Bortezomib (first compound 0.1 µM); 0.539 with YM155 + Dasatinib (first compound 0.002 µM); 0.62 with YM155 + Dasatinib (first compound 0.006325 µM); 0.569 in the assay with YM155 + Dasatinib (first compound 0.02 µM). Besides, the relative viability with YM155 + Dasatinib (first compound 0.06325 µM) was found to be 0.599.
LU99A: the relative viability came out at 0.253 with Quizartinib + Olaparib (first compound 0.001 µM); 0.251 in the assay with Quizartinib + Olaparib (first compound 0.003162 µM); 0.293 in the assay with Quizartinib + Olaparib (first compound 0.01 µM); 0.276 in the assay with Quizartinib + Olaparib (first compound 0.03162 µM); 0.238 with Quizartinib + Olaparib (first compound 0.1 µM); 0.312 with Quizartinib + Pictilisib (first compound 0.001 µM). The relative viability with Quizartinib + Pictilisib (first compound 0.003162 µM) came out at 0.317; with Quizartinib + Pictilisib (first compound 0.01 µM) it was 0.327; with Quizartinib + Pictilisib (first compound 0.03162 µM), 0.309; with Quizartinib + Pictilisib (first compound 0.1 µM) it was 0.291; with Quizartinib + Bortezomib (first compound 0.001 µM), 0.837; with Quizartinib + Bortezomib (first compound 0.003162 µM), 1.08. Further, the relative viability in the assay with Quizartinib + Bortezomib (first compound 0.01 µM) came to 1.3; with Quizartinib + Bortezomib (first compound 0.03162 µM), 1.19; with Quizartinib + Bortezomib (first compound 0.1 µM) it was 1.2; in the assay with YM155 + Dasatinib (first compound 0.002 µM), 0.562; with YM155 + Dasatinib (first compound 0.006325 µM) it was 0.442; with YM155 + Dasatinib (first compound 0.02 µM), 0.697. Further, the relative viability in the assay with YM155 + Dasatinib (first compound 0.06325 µM) was 0.518.
With LXF-289, the relative viability with Quizartinib + Olaparib (first compound 0.001 µM) was determined as 0.901; with Quizartinib + Olaparib (first compound 0.003162 µM) it was 0.987; with Quizartinib + Olaparib (first compound 0.01 µM), 1.16; with Quizartinib + Olaparib (first compound 0.03162 µM) it was 1; with Quizartinib + Olaparib (first compound 0.1 µM) it was 0.992; with Quizartinib + Pictilisib (first compound 0.001 µM), 0.71. Also, the relative viability with Quizartinib + Pictilisib (first compound 0.003162 µM) stood at 0.748; with Quizartinib + Pictilisib (first compound 0.01 µM), 0.801; with Quizartinib + Pictilisib (first compound 0.03162 µM), 0.763; with Quizartinib + Pictilisib (first compound 0.1 µM) it was 0.777; with Quizartinib + Bortezomib (first compound 0.001 µM) it was 0.868; in the assay with Quizartinib + Bortezomib (first compound 0.003162 µM), 0.955. For the same cell line, the relative viability with Quizartinib + Bortezomib (first compound 0.01 µM) worked out at 0.983; in the assay with Quizartinib + Bortezomib (first compound 0.03162 µM), 0.949; with Quizartinib + Bortezomib (first compound 0.1 µM) it was 1.03; with YM155 + Dasatinib (first compound 0.002 µM), 0.233; with YM155 + Dasatinib (first compound 0.006325 µM), 0.231; with YM155 + Dasatinib (first compound 0.02 µM), 0.194. Besides, the relative viability with YM155 + Dasatinib (first compound 0.06325 µM) amounted to 0.224.
Regarding NCI-H23, the relative viability with Quizartinib + Olaparib (first compound 0.001 µM) was 0.273; with Quizartinib + Olaparib (first compound 0.003162 µM), 0.269; in the assay with Quizartinib + Olaparib (first compound 0.01 µM), 0.372; with Quizartinib + Olaparib (first compound 0.03162 µM), 0.279; with Quizartinib + Olaparib (first compound 0.1 µM), 0.264; with Quizartinib + Pictilisib (first compound 0.003162 µM), 0.464. Also, the relative viability with Quizartinib + Pictilisib (first compound 0.01 µM) was 0.49; with Quizartinib + Pictilisib (first compound 0.03162 µM) it was 0.568; with Quizartinib + Pictilisib (first compound 0.1 µM), 0.441; in the assay with Quizartinib + Bortezomib (first compound 0.003162 µM), 0.937; with Quizartinib + Bortezomib (first compound 0.01 µM) it was 1.08; in the assay with Quizartinib + Bortezomib (first compound 0.03162 µM) it was 0.97. Also, the relative viability with Quizartinib + Bortezomib (first compound 0.1 µM) was 0.888; with YM155 + Dasatinib (first compound 0.002 µM), 0.634; in the assay with YM155 + Dasatinib (first compound 0.006325 µM), 0.692; in the assay with YM155 + Dasatinib (first compound 0.02 µM), 0.785; in the assay with YM155 + Dasatinib (first compound 0.06325 µM) it was 0.601.
Take NCI-H322M: the relative viability with Quizartinib + Olaparib (first compound 0.001 µM) amounted to 0.769; with Quizartinib + Olaparib (first compound 0.003162 µM), 0.721; in the assay with Quizartinib + Olaparib (first compound 0.01 µM), 0.739; in the assay with Quizartinib + Olaparib (first compound 0.03162 µM), 0.678; in the assay with Quizartinib + Olaparib (first compound 0.1 µM), 0.825; with Quizartinib + Pictilisib (first compound 0.001 µM), 0.523. The relative viability came to 0.545 in the assay with Quizartinib + Pictilisib (first compound 0.003162 µM); 0.509 with Quizartinib + Pictilisib (first compound 0.01 µM); 0.533 with Quizartinib + Pictilisib (first compound 0.03162 µM); 0.537 with Quizartinib + Pictilisib (first compound 0.1 µM); 1.15 with Quizartinib + Bortezomib (first compound 0.001 µM); 1.26 in the assay with Quizartinib + Bortezomib (first compound 0.003162 µM). Besides, the relative viability was 1.27 in the assay with Quizartinib + Bortezomib (first compound 0.01 µM); 1.24 with Quizartinib + Bortezomib (first compound 0.03162 µM); 1.15 with Quizartinib + Bortezomib (first compound 0.1 µM); 0.238 with YM155 + Dasatinib (first compound 0.002 µM); 0.271 with YM155 + Dasatinib (first compound 0.006325 µM); 0.278 in the assay with YM155 + Dasatinib (first compound 0.02 µM). Further, in the assay with YM155 + Dasatinib (first compound 0.06325 µM), the relative viability was 0.26.
As to NCI-H441, the relative viability is 0.441 with Quizartinib + Olaparib (first compound 0.001 µM); 0.558 with Quizartinib + Olaparib (first compound 0.003162 µM); 0.646 with Quizartinib + Olaparib (first compound 0.01 µM); 0.434 with Quizartinib + Olaparib (first compound 0.03162 µM); 0.683 in the assay with Quizartinib + Olaparib (first compound 0.1 µM); 0.38 with Quizartinib + Pictilisib (first compound 0.001 µM). In addition, the relative viability in the assay with Quizartinib + Pictilisib (first compound 0.003162 µM) was 0.508; in the assay with Quizartinib + Pictilisib (first compound 0.01 µM) it was 0.508; with Quizartinib + Pictilisib (first compound 0.03162 µM), 0.379; with Quizartinib + Pictilisib (first compound 0.1 µM) it was 0.606; in the assay with Quizartinib + Bortezomib (first compound 0.001 µM), 0.476; with Quizartinib + Bortezomib (first compound 0.003162 µM), 0.466. For the same cell line, the relative viability with Quizartinib + Bortezomib (first compound 0.01 µM) turned out to be 0.451; in the assay with Quizartinib + Bortezomib (first compound 0.03162 µM), 0.576; with Quizartinib + Bortezomib (first compound 0.1 µM), 1.57; with YM155 + Dasatinib (first compound 0.002 µM), 0.609; in the assay with YM155 + Dasatinib (first compound 0.006325 µM), 0.674; with YM155 + Dasatinib (first compound 0.02 µM), 0.558. The relative viability with YM155 + Dasatinib (first compound 0.06325 µM) came out at 0.495.
On to NCI-H460, for which the relative viability with Quizartinib + Olaparib (first compound 0.003162 µM) came to 0.377; in the assay with Quizartinib + Olaparib (first compound 0.01 µM) it was 0.573; in the assay with Quizartinib + Olaparib (first compound 0.03162 µM), 0.336; in the assay with Quizartinib + Olaparib (first compound 0.1 µM), 0.429; with Quizartinib + Pictilisib (first compound 0.001 µM), 0.439; in the assay with Quizartinib + Pictilisib (first compound 0.003162 µM) it was 0.436. The relative viability in the assay with Quizartinib + Pictilisib (first compound 0.01 µM) worked out at 0.382; with Quizartinib + Pictilisib (first compound 0.03162 µM), 0.352; with Quizartinib + Pictilisib (first compound 0.1 µM), 0.384; in the assay with Quizartinib + Bortezomib (first compound 0.001 µM), 0.881; in the assay with Quizartinib + Bortezomib (first compound 0.003162 µM), 0.987; with Quizartinib + Bortezomib (first compound 0.01 µM) it was 1.24. Further, the relative viability was 0.68 in the assay with Quizartinib + Bortezomib (first compound 0.1 µM); 0.487 with YM155 + Dasatinib (first compound 0.002 µM); 0.499 with YM155 + Dasatinib (first compound 0.006325 µM); 0.582 in the assay with YM155 + Dasatinib (first compound 0.02 µM); 0.547 with YM155 + Dasatinib (first compound 0.06325 µM).
Consider NCI-H520, for which the relative viability in the assay with Quizartinib + Olaparib (first compound 0.003162 µM) is 0.308; with Quizartinib + Olaparib (first compound 0.01 µM), 0.367; with Quizartinib + Olaparib (first compound 0.03162 µM), 0.352; with Quizartinib + Olaparib (first compound 0.1 µM), 0.29; with Quizartinib + Pictilisib (first compound 0.001 µM), 0.306; with Quizartinib + Pictilisib (first compound 0.003162 µM), 0.273. Further, the relative viability with Quizartinib + Pictilisib (first compound 0.01 µM) worked out at 0.307; in the assay with Quizartinib + Pictilisib (first compound 0.03162 µM), 0.287; with Quizartinib + Pictilisib (first compound 0.1 µM), 0.245; with Quizartinib + Bortezomib (first compound 0.001 µM), 0.448; in the assay with Quizartinib + Bortezomib (first compound 0.003162 µM), 0.549; in the assay with Quizartinib + Bortezomib (first compound 0.01 µM) it was 0.736. The relative viability with Quizartinib + Bortezomib (first compound 0.03162 µM) was 0.532; with Quizartinib + Bortezomib (first compound 0.1 µM), 0.462; with YM155 + Dasatinib (first compound 0.002 µM) it was 0.197; in the assay with YM155 + Dasatinib (first compound 0.006325 µM), 0.174; with YM155 + Dasatinib (first compound 0.02 µM), 0.217; in the assay with YM155 + Dasatinib (first compound 0.06325 µM), 0.185.

The values are drawn from the supplement of paper PMC10307832.
